According to patent US20240131168A1, “NAPHTHALENE RING-CONTAINING COMPOUND, PHARMACEUTICAL COMPOSITION CONTAINING SAME, AND USE THEREOF” (JIANGSU YAHONG MEDITECH CO., LTD., priority 2021, published 2024):

Columns and labels:
Assay type in all cases: cell-based
MCF-7 = test: CellTiter-Glo cell proliferation inhibition, MCF-7 (Effect Example 2); settings: Homo sapiens, MCF7, 144 h, MCF-7 (CTG), 6 days, starting concentration 10 μM; for inhibition at up to 10 µM: read-out: IH % max (maximum inhibition percentage)
Excerpt: (§1) 1. Cell line • (1) Breast cancer cell lines and their culture media: • MCF-7 (ATCC; Cat. No.: HTB-22), a Luminal A breast cancer cell; • TamR-MCF-7 (ATCC; Cat. No.: CRL-3435), a breast cancer cell; • MCF-7 ER^D538G: a Luminal A breast cancer cell obtained by constructing MCF-7 (ATCC; Cat. No.: HTB-22) using CRISPR-Cas9 gene editing technology; • MCF-7 ER^Y537S: a Luminal A breast cancer cell obtained by constructing MCF-7 (ATCC; Cat. No.: HTB-22) using CRISPR-Cas9 gene editing technology; • MDA-MB-231: (manufacturer: Nanjing CoBioer Biosciences Co., Ltd.), a triple-negative breast cancer cell; • MDA-MB-468: (manufacturer: Nanjing CoBioer Biosciences Co., Ltd.), a triple-negative breast cancer cell.
(§2) Herein, the culture medium of MCF-7, TamR-MCF-7, MCF-7 ER^D538G, and MCF-7 ER^Y537S was EMEM; • the culture medium of MDA-MB-231 and MDA-MB-468 was DMEM.
(§3) 2. Reagents • Culture medium EMEM (Gibco, 1964507) • Culture medium DMEM (Gibco, 12430-054) • Fetal bovine serum (Gibco, 10091148) • Penicillin-streptomycin double antibody (Gibco, S110JV) • DPBS (Gibco, 14190-144) • CellTiter-Glo® assay kit (Promega, G7573) • Trypsin (0.25%) (Gibco, 25200-056) • DMSO (Sigma, D2650)
(§4) 3. Instruments • Biosafety cabinet (AIRTECH, BSC-1300A II) • Automated cell counter (Life Technologies, countess II) • Multifunctional microplate reader (Biotek, H1FM) • Orbital shaker (Hangzhou Allsheng Instruments Co., Ltd., OS-100) • XLFIT 5.3 (Inforstack Shanghai Co., Ltd.)
(§5) For this test method, the following experiments were performed in a biosafety cabinet, with the specific steps as follows: • (1) Cells were inoculated in a 96-well plate. One day later, the previous culture medium was poured off, 5 mL of DPBS was added to wash the cells, and then DPBS was pipetted and discarded. An appropriate amount of trypsin was then added. The plate was digested in a 37° C., 5% CO2 cell incubator for about 2 to 5 minutes and then taken out. Anew corresponding culture medium was added, and pipetted up and down to resuspend the cells evenly. The cells were then counted using an automated cell counter. • (2) Each cell was inoculated in columns 1 to 11 of a 96-well plate (Corning, Cat. No.: 3610) at a density of 1,000 or 2,000 cells per well in 100 μL of culture medium, and 100 μL of the corresponding culture medium without cells was added to the wells in column 12. The plate was then placed in a 37° C., 5% CO2 incubator for 24 hours. • (3) The compound of the present disclosure and the control drug fulvestrant (Selleck; Cat. No.: S1191) were then 4-fold serially diluted to 10 dose points starting at 10 μM. 10 μL of the serially diluted compound was pipetted and added to 100 μL of cells in columns 1 to 10, and 10 μL of the corresponding culture medium containing 0.33 v % DMSO was added to both columns 11 and 12. The plate was incubated in a 37° C., 5% CO2 incubator for 6 days or 72 hours (Note: column 11 was used as a MAX well with cells but without compound; column 12 was used as a MIN well without cells […]). • (4) The cell viability detection reagent in the CellTiter-Glo® assay kit was then added to the 96-well plate at 50 μL per well according to the instructions, and shaken on an orbital shaker in the dark for 5 to 10 minutes. The cell viability was then measured using a multifunctional microplate reader. Finally, the inhibition of cell proliferation by the compound of the present disclosure was plotted by XLFIT software, and the IC50 value (half inhibitory concentration) and the IH % max (maximum inhibition percentage) of the compound of the present disclosure were calculated.

MCF-7 ER^D538G = test: CellTiter-Glo cell proliferation inhibition, MCF-7 ER^D538G; settings: Homo sapiens, MCF7, 144 h; MCF-7 ER^D538G (CTG), 6 days, starting concentration 10 μM; read-out: IH % max (maximum inhibition percentage)
Excerpt: as §1, §2, §3, §4, §5

MDA-MB-468 = test: CellTiter-Glo cell proliferation inhibition, MDA-MB-468; settings: Homo sapiens, 144 h, MDA-MB-468 (CTG), 6 days, starting concentration 10 μM; for inhibition at up to 10 µM: read-out: IH % max (maximum inhibition percentage)
Excerpt: as §1, §2, §3, §4, §5
Compounds D64 to D69 were tested for MDA-MB-231 (CTG) and MDA-MB-468 (CTG) with an incubation time of 72 hours in the incubator.

| IC50 (MCF-7) | IC50 (MDA-MB-468) | Structure (SMILES) | inhibition at up to 10 µM (MCF-7) | inhibition at up to 10 µM (MCF-7 ER^D538G) | inhibition at up to 10 µM (MDA-MB-468) |
| --- | --- | --- | --- | --- | --- |
| 153 nM |  | CCN(CCCCCCCCCc1ccc2c(c1)C(=O)N(C1CCC(=O)NC1=O)C2=O)CCOc1ccc(Oc2c(-c3ccc(S(C)(=O)=O)cc3)ccc3cc(O)ccc23)cc1 (stereo not shown) [Compound D63, 2-(2,6-dioxopiperidin-3-yl)-5-(9-(ethyl(2-(4-((6-hydroxy-2-(4-(methylsulfonyl)phenyl)naphthalen-1-yl)oxy)phenoxy)ethyl)amino)nonyl)isoindoline-1,3-dione] | 98.9% |  |  |
|  |  | CS(=O)(=O)c1ccc(-c2ccc3cc(O)ccc3c2Oc2ccc(OCCOCCOCCN3CCN(c4cccc5c4CN(C4CCC(=O)NC4=O)C5=O)CC3)cc2)cc1 (stereo not shown) [Compound D37, 3-(4-(4-(2-(2-(2-(4-((6-hydroxy-2-(4-(methylsulfonyl)phenyl)naphthalen-1-yl)oxy)phenoxy)ethoxy)ethoxy)ethyl)piperazin-1-yl)-1-oxoisoindolin-2-yl)piperidine-2,6-dione] | 49% | 52% |  |
|  |  | CS(=O)(=O)c1ccc(-c2ccc3cc(O)ccc3c2Oc2ccc(OCCN3CCN(c4cccc5c4CN(C4CCC(=O)NC4=O)C5=O)CC3)cc2)cc1 (stereo not shown) [Compound D53, 3-(4-(4-(2-(4-((6-hydroxy-2-(4-(methylsulfonyl)phenyl)naphthalen-1-yl)oxy)phenoxy)ethyl)piperazin-1-yl)-1-oxoisoindolin-2-yl)piperidine-2,6-dione] | 49.7% |  | 99.2% |
| 143 nM |  | CCN(CCOCCN1CCN(c2ccc3c(c2)C(=O)N(C2CCC(=O)NC2=O)C3)CC1)CCOc1ccc(Oc2c(-c3ccc(S(C)(=O)=O)cc3)ccc3cc(O)ccc23)cc1 (stereo not shown) [Compound D51] | 52.9% |  |  |
|  |  | CCN(CCOc1ccc(Oc2c(-c3ccc(S(C)(=O)=O)cc3)ccc3cc(O)ccc23)cc1)CCN1CCN(c2ccc3c(c2)C(=O)N(C2CCC(=O)NC2=O)C3)CC1 (stereo not shown) [Compound D56] | 55.6% |  |  |
|  |  | CCN(CCOCCOCC(=O)N1CCN(c2ccc3c(c2)CN(C2CCC(=O)NC2=O)C3=O)CC1)CCOc1ccc(Oc2c(-c3ccc(S(C)(=O)=O)cc3)ccc3cc(O)ccc23)cc1 (stereo not shown) [Compound D46] | 34% | 46% |  |
|  |  | CCN(CCOCC(=O)N1CCN(c2ccc3c(c2)C(=O)N(C2CCC(=O)NC2=O)C3)CC1)CCOc1ccc(Oc2c(-c3ccc(S(C)(=O)=O)cc3)ccc3cc(O)ccc23)cc1 (stereo not shown) [Compound D50] | 48.4% |  |  |
|  |  | CS(=O)(=O)c1ccc(-c2ccc3cc(O)ccc3c2Oc2ccc(OCCOCCN3CCN(c4ccc5c(c4)C(=O)N(C4CCC(=O)NC4=O)C5)CC3)cc2)cc1 (stereo not shown) [Compound D43, 3-(6-(4-(2-(2-(4-((6-hydroxy-2-(4-(methylsulfonyl)phenyl)naphthalen-1-yl)oxy)phenoxy)ethoxy)ethyl)piperazin-1-yl)-1-oxoisoindolin-2-yl)piperidine-2,6-dione] | 36% | 36% |  |
|  |  | CS(=O)(=O)c1ccc(-c2ccc3cc(O)ccc3c2Oc2ccc(OCCOCCOCCOCCNc3cccc4c3CN(C3CCC(=O)NC3=O)C4=O)cc2)cc1 (stereo not shown) [Compound D20, 3-(4-((2-(2-(2-(2-(4-((6-hydroxy-2-(4-(methylsulfonyl)phenyl)naphthalen-1-yl)oxy)phenoxy)ethoxy)ethoxy)ethoxy)ethyl)amino)-1-oxoisoindolin-2-yl)piperidine-2,6-dione] | 38% |  |  |
|  | 18.6 nM | COc1ccc2c(Oc3ccc(OCCN4CCN(c5ccc6c(c5)CN(C5CCC(=O)NC5=O)C6=O)CC4)cc3)c(-c3ccc(S(C)(=O)=O)cc3)ccc2c1 (stereo not shown) [Compound D3, 3-(5-(4-(2-(4-((6-methoxy-2-(4-(methylsulfonyl)phenyl)naphthalen-1-yl)oxy)phenoxy)ethyl)piperazin-1-yl)-1-oxoisoindolin-2-yl)piperidine-2,6-dione] | 30% |  | 73% |
|  |  | CCN(CCOCCOCC(=O)N1CCN(c2ccc3c(c2)C(=O)N(C2CCC(=O)NC2=O)C3)CC1)CCOc1ccc(Oc2c(-c3ccc(S(C)(=O)=O)cc3)ccc3cc(O)ccc23)cc1 (stereo not shown) [Compound D44] | 33% | 52% |  |
|  |  | CS(=O)(=O)c1ccc(-c2ccc3cc(O)ccc3c2Oc2ccc(OCCOCCOCCOCCOc3cccc4c3CN(C3CCC(=O)NC3=O)C4=O)cc2)cc1 (stereo not shown) [Compound D14, 3-(4-(2-(2-(2-(2-(4-((6-hydroxy-2-(4-(methylsulfonyl)phenyl)naphthalen-1-yl)oxy)phenoxy)ethoxy)ethoxy)ethoxy)ethoxy)-1-oxoisoindolin-2-yl)piperidine-2,6-dione] | 42% | 40% | 32% |
|  |  | COc1ccc2c(Oc3ccc(OCCCCN4CCN(c5ccc6c(c5)CN(C5CCC(=O)NC5=O)C6=O)CC4)cc3)c(-c3ccc(S(C)(=O)=O)cc3)ccc2c1 (stereo not shown) [Compound D58, 3-(5-(4-(4-(4-((6-methoxy-2-(4-(methylsulfonyl)phenyl)naphthalen-1-yl)oxy)phenoxy)butyl)piperazin-1-yl)-1-oxoisoindolin-2-yl)piperidine-2,6-dione] | 39% |  |  |
|  |  | CCN(CCOCCOCCOCCNc1ccc2c(c1)C(=O)N(C1CCC(=O)NC1=O)C2=O)CCOc1ccc(Oc2c(-c3ccc(S(C)(=O)=O)cc3)ccc3cc(O)ccc23)cc1 (stereo not shown) [Compound D62, 2-(2,6-dioxopiperidin-3-yl)-5-((3-ethyl-1-(4-((6-hydroxy-2-(4-(methylsulfonyl)phenyl)naphthalen-1-yl)oxy)phenoxy)-6,9,12-trioxa-3-azatetradecan-14-yl)amino)isoindoline-1,3-dione] | 45.1% |  | 98.5% |
|  |  | CS(=O)(=O)c1ccc(-c2ccc3cc(O)ccc3c2Oc2ccc(OCCOCCOCCOCCNc3ccc4c(c3)C(=O)N(C3CCC(=O)NC3=O)C4)cc2)cc1 (stereo not shown) [Compound D29] | 47% | 47% |  |
|  |  | CS(=O)(=O)c1ccc(-c2ccc3cc(O)ccc3c2Oc2ccc(OCCCCN3CCN(c4ccc5c(c4)C(=O)N(C4CCC(=O)NC4=O)C5=O)CC3)cc2)cc1 (stereo not shown) [Compound D13, 2-(2,6-dioxopiperidin-3-yl)-5-(4-(4-(4-((6-hydroxy-2-(4-(methylsulfonyl)phenyl)naphthalen-1-yl)oxy)phenoxy)butyl)piperazin-1-yl)isoindoline-1,3-dione] | 34% |  |  |
| 13.2 nM |  | CS(=O)(=O)c1ccc(-c2ccc3cc(O)ccc3c2Oc2ccc(OCC(=O)N3CCN(c4ccc5c(c4)CN(C4CCC(=O)NC4=O)C5=O)CC3)cc2)cc1 (stereo not shown) [Compound D54, 3-(5-(4-(2-(4-((6-hydroxy-2-(4-(methylsulfonyl)phenyl)naphthalen-1-yl)oxy)phenoxy)acetyl)piperazin-1-yl)-1-oxoisoindolin-2-yl)piperidine-2,6-dione] | 96.5% |  |  |
